Data set [1] has as its target T1, hA3AR (Homo sapiens (Human), UniProt P0DMS8). In words: FCM competitive binding in whole CHO cells using MRS5449 as tracer. As to conditions: whole CHO cells expressing hA3AR; 5 nM MRS5449 tracer; 90 min at 37° C. How it is done: Total binding was measured in the absence of the competitor.
(§1) At the end of each time interval, the medium was removed and cells were washed three times with ice-cold DPBS. After washing, 1 ml 0.2% EDTA solution was added to each well, and cells were incubated at 37° C. for 7 min. Following cell detachment, 1 ml medium was added to each well to neutralize the EDTA. The cell suspensions were transferred to polystyrene round-bottom BD Falcon tubes (BD, Franklin Lakes, N.J.) and centrifuged for 5 min at 23° C. and 400×g. After centrifugation, the supernatant was discarded, and cells were washed with 3 ml PBS and centrifuged again at 23° C. and 400×g for 5 min. After discarding the supernatant, cells were suspended in 0.5 ml PBS and analyzed by FCM.
The intensity of fluorescence emission of each sample was measured by using FCM. […] Samples were maintained in the dark during the analysis to avoid photobleaching. MFIs were obtained in the FL-1 channel in log mode. Ten thousand events were analyzed per sample.
Data analysis was performed with the Prism 5 (GraphPad, San Diego Calif.) software. The mean autofluorescence of CHO cells was measured in the absence of the fluorescent ligand.

Data set [2] addresses T1, hA3AR. In words: Radioligand membrane binding assay at hA3AR ([125I]I-AB-MECA). As to conditions: for Ki: read-out: A3 Ki. How it is done: (§2) For cell cultures used in radioligand binding assays, after harvest and homogenization, the cells were centrifuged at 200×g for 10 min, and the pellet was re-suspended in 50 mM Tris-HCl buffer (pH 7.5), containing 10 mM MgCl2. The suspension was homogenized with an electric homogenizer for 10 s and was then re-centrifuged at 20,000×g for 20 min at 4° C. The resultant membrane pellets were resuspended in buffer in the presence of 3 units/ml adenosine deaminase, and the suspension was stored at −80° C. until the binding experiments. The protein concentration was measured using the Bradford assay. Radioligand membrane binding assays

Data set [3] addresses hA2AAR (Homo sapiens (Human), UniProt P29274). Kind of data set: Radioligand membrane binding assay at hA2A AR ([3H]CGS21680). As to conditions: read-out: A2A Ki. How it is done:
as §2

Data set [4] addresses hA1 AR (Homo sapiens (Human), UniProt P30542). In words: Radioligand membrane binding assay at hA1 AR ([3H]R-PIA). As to conditions: for Ki: read-out: A1 Ki. The protocol:
as §2

For data set [5], the target named is A2AAR (Homo sapiens (Human), UniProt P29274). In words: FCM binding of fluorescent ligand to HEK cells expressing the A2AAR. How it is done:
(§3) Chinese hamster ovary (CHO) cells without heterologous AR expression were grown in DMEM/F12 (1:1) medium with 10% FBS, 2 mM L-glutamine, 50 U/ml penicillin/streptomycin. CHO cells expressing the A1 or A3 AR and HEK293 cells expressing the A2A AR were grown in the same medium but in the presence of 500 μg/ml hygromycin B and 800 μg/ml of G418, respectively. Cells, used for FCM analysis, were grown in 6-well plates (approximately 400,000 cells/well) and incubated at 37° C. for 24 h in the presence of 5% CO2. When confluency of the cells was reached 80% (approximately 10^6 cells/well), medium was replaced with fresh medium and MRS5449 was added in the presence or absence of competitive antagonists, and cells were processed for FCM.
(§4) The intensity of fluorescence emission of each sample was measured by using FCM. Cell suspensions were vortexed briefly before analysis on a Becton and Dickinson FACSCalibur flow cytometer (BD, Franklin Lakes, N.J.) with excitation at 488 nm. Samples were maintained in the dark during the analysis to avoid photobleaching. MFIs were obtained in the FL-1 channel in log mode. Ten thousand events were analyzed per sample. Data were collected using Cell Quest Pro software (BD, Franklin Lakes, N.J.) and analyzed by Cyflogic v. 1.2.1 software (CyFlo, Ltd., Turku, Finland).

The target in data set [6] is A3AR (Homo sapiens (Human), UniProt P0DMS8). Kind of data set: Cyclic AMP accumulation assay, antagonism of Cl-IB-MECA (Schild analysis). Type of data set: cell-based. Particulars: inhibition of forskolin-stimulated cyclic AMP by Cl-IB-MECA in CHO cells expressing the A3AR. How it is done: CHO cells stably expressing the hA3AR were seeded in 24-well plates and incubated at 37° C. overnight. The medium was removed the following day and replaced with DMEM containing 50 mM HEPES, 10 μM rolipram, 3 units/ml adenosine deaminase (Worthington Biochemical Corp., Lakewood, N.J.), and increasing concentrations of agonists and incubated for […]. Forskolin (10 μM) was added and incubated for an additional 15 min. The medium was removed, and the cells were lysed with 200 μL of 0.1 M HCl. 100 μl of the HCl solution was used in the Sigma Direct cAMP Enzyme Immunoassay following the instructions provided with the kit. The OD values were measured with a SpectraMax M5 Microplate reader (Molecular Devices, Sunnyvale, Calif.) at 405 nm.

Data set [7] concerns the target T1, hA3AR. Kind of data set: Fluorescent ligand binding by FCM in intact CHO cells expressing the hA3AR (preliminary, saturation, kinetics). How it is done:
In preliminary binding experiments of compounds 1-6 and MRS5449 were incubated with CHO cells expressing the hA3AR for 1 h at 37° C. in an atmosphere containing 5% CO2. The concentrations used were incubated with 1.5 μM 1, 5 μM 2, 1.5 μM 3, 10 μM 4, 20 μM 5, 15 μM 6, or 10 nM MRS5449. For further binding experiments with MRS5449, control CHO cells (CHO cells without heterologous receptor expression) and CHO cells expressing hA3AR were incubated with 10 nM MRS5449 for 3 h.
In saturation binding experiments, CHO cells expressing the hA3AR were incubated with concentrations of MRS5449 ranging from 2.5 nM to 250 nM for 1 h. To study binding kinetics of MRS5449, CHO cells expressing the hA3AR were incubated with 10 nM MRS5449 for different time intervals from 5 min to 3 h. The association and dissociation rate was measured as follows: 10 nM MRS5449 was added to CHO cells expressing the A3AR and measured total binding at different time intervals. After 90 min, dissociation was initiated by adding 10 μM of non-fluorescent A3AR antagonist MRS1220 and then measured the dissociation at different time intervals.
as §1
The mean fluorescence intensity (MFI) values of the standard particles were recorded under optimized instrument setting and converted into MESF values using the QuickCal program v. 2.3 (Bangs Laboratories, Inc., Fishers, Ind.). MFIs of receptor-bound fluorescent small molecules in this study were measured under exactly the same conditions and the assigned MESF values were extrapolated from the calibration curve.
as §4
Data analysis was performed with the Prism 5 (GraphPad, San Diego Calif.) software. The mean autofluorescence of CHO cells was measured in the absence of the fluorescent ligand. The mean fluorescence in the presence of fluorescent ligand was corrected by subtracting this value; Wood, J C S, Curr Protoc Cytom 2009; 1.4.1-1.4.14.

Data set [8] addresses A1AR (Homo sapiens (Human), UniProt P30542). In words: FCM binding of fluorescent ligand to CHO cells expressing the A1AR. How it is done: as §3, §4

Read-outs that look alike come from different tables or passages of the source.

T1 sequence (P0DMS8 whole entry): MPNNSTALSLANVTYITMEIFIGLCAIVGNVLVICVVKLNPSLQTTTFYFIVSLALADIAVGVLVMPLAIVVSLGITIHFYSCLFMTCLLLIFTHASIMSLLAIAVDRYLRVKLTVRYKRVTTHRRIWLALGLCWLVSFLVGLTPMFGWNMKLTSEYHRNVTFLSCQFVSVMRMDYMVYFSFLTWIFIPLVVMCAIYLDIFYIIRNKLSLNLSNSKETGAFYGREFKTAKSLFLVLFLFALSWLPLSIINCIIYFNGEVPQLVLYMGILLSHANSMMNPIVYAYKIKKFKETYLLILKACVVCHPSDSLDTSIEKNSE
Sequence of hA1 AR (P30542 whole entry): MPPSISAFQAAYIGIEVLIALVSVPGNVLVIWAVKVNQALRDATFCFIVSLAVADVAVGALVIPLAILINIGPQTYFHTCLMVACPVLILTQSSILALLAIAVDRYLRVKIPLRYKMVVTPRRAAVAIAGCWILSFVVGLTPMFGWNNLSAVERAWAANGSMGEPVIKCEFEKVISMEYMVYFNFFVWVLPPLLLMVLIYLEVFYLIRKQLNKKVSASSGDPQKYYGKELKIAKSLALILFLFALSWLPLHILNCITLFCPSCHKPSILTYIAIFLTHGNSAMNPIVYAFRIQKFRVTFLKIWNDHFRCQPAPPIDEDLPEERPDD
Sequence of hA2AAR (P29274 whole entry): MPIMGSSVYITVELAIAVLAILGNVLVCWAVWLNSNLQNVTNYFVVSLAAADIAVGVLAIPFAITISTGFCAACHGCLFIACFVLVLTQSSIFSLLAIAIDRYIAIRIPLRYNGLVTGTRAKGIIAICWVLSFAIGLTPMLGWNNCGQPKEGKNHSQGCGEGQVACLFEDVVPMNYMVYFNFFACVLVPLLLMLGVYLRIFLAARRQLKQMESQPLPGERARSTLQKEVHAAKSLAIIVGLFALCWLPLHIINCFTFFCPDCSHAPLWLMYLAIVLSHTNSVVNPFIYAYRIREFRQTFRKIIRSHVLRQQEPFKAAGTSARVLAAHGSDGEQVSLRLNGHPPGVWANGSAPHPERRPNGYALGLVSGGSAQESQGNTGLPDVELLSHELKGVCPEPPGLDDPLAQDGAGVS
Sequence of A3AR (P0DMS8 whole entry): as the sequence (P0DMS8 whole entry) above
Sequence of A1AR (P30542 whole entry): as the sequence (P30542 whole entry) above
Sequence of A2AAR (P29274 whole entry): as the sequence (P29274 whole entry) above

With `Nc1nc2ccc(Cl)cc2c2nc(-c3ccco3)nn12` [Compound 7], the Ki in [1] worked out at 16.1 ± 6.2 nM.
Still for that read-out and setting: the value for `OC[C@H]1O[C@@H](n2cnc3c(NC4CCCC4)ncnc32)[C@H](O)[C@@H]1O` [CPA, (2R,3R,4S,5R)-2-[6-(cyclopentylamino)purin-9-yl]-5(hydroxymethyl)oxolane-3,4-diol] was 1490 ± 230 nM.
`Cn1cc2c(nc(NC(=O)Nc3ccc(CC(=O)NCCCOCCOCCOCCCNC(=O)OC(C)(C)C)cc3)n3nc(-c4ccco4)nc23)n1` [Compound 16, tert-Butyl (1-(4-(3-(2-(furan-2-yl)-8-methyl-8H-pyrazolo[4,3-e][1,2,4]triazolo[1,5-c]pyrimidin-5-yl)ureido)phenyl)-2-oxo-7,10,13-trioxa-3-azahexadecan-16-yl)carbamate] gave a melting point of 151 to 158 °C. For the same compound, the Ki in data set [2] (Table 3) is 82.4 ± 20.1 nM. The Ki in [3] (Table 3) was determined as 327 ± 32 nM. The A1 % inhibition in [4] (Table 3) was 11% ± 5%.
For `Cn1cc2c(nc(NC(=O)Nc3ccc(CC(=O)NCCCOCCOCCOCCCN)cc3)n3nc(-c4ccco4)nc23)n1.O=C(O)C(F)(F)F` [Compound 21, N-(3-(2-(2-(3-aminopropoxy)ethoxy)ethoxy)propyl)-2-(4-(3-(2-(furan-2-yl)-8-methyl-8H-pyrazolo[4,3-e][1,2,4]triazolo[1,5-c]pyrimidin-5-yl)ureido)phenyl)acetamide trifluoroacetate salt], in that order: 133 to 140 °C, 10.3 ± 0.4 nM, 328 ± 77 nM and 1% ± 1%.
For `Cn1cc2c(nc(NC(=O)Nc3ccc(CC(=O)NCCCCNC(=O)OC(C)(C)C)cc3)n3nc(-c4ccco4)nc23)n1` [Compound 13, tert-Butyl (4-(2-(4-(3-(2-(furan-2-yl)-8-methyl-8H-pyrazolo[4,3-e][1,2,4]triazolo[1,5-c]pyrimidin-5-yl)ureido)phenyl)acetamido)butyl)carbamate], in that order: 186 to 193 °C, 3.46 ± 0.33 nM, 304 ± 20 nM and 2% ± 2%.
As to `C#CCCCCC(=O)Nc1nc2nn(C)cc2c2nc(-c3ccco3)nn12` [Compound 38, N-(2-(furan-2-yl)-8-methyl-8H-pyrazolo[4,3-e][1,2,4]triazolo[1,5-c]pyrimidin-5-yl)hept-6-ynamide], the melting point was 208 to 215 °C (dec.). Moreover, the Ki in [2] (Table 3) amounted to 7.26 ± 1.04 nM. The Ki in data set [3] (Table 3) was determined as 151 ± 33 nM. Further, the Ki in [4] (Table 3) amounted to 891 ± 265 nM.
As to `Cn1cc2c(nc(NC(=O)Nc3ccc(CC(=O)NCCOCCOCCNC(=O)OC(C)(C)C)cc3)n3nc(-c4ccco4)nc23)n1` [Compound 15, tert-Butyl (2-(2-(2-(2-(4-(3-(2-(furan-2-yl)-8-methyl-8H-pyrazolo[4,3-e][1,2,4]triazolo[1,5-c]pyrimidin-5-yl)ureido)phenyl)acetamido)-ethoxy)ethoxy)ethyl)carbamate], the melting point lay within 157 to 165 °C. Moreover, the Ki in data set [2] (Table 3) stood at 74.8 ± 10.1 nM. The Ki in data set [3] (Table 3) came out at 456 ± 96 nM. Further, the A1 % inhibition in [4] (Table 3) was 7% ± 5%.
For the compound “2-(6-Amino-3-iminio-4,5-disulfonato-3H-xanthen-9-yl)-5-((6-(4-(4-((9-chloro-2-(furan-2-yl)-[1,2,4]triazolo[1,5-c]quinazolin-5-yl)amino)-4-oxobutyl)-1H-1,2,3-triazol-1-yl)hexyl)carbamoyl)benzoate [Compound 9]”, the inhibitory constant (Ki) in data set [2] (Table 1, CHO cells expressing hA3AR, [125I]I-AB-MECA) was found to be 6.4 nM; in data set [3] (Table 1, HEK293 cells expressing hA2AAR, [3H]CGS21680), 73 nM; in data set [4] (Table 1, CHO cells expressing hA1AR, agonist radioligand [3H]R-PIA), 87 nM. For the same compound, the “selectivity for the A3AR” value in data set [2] (versus hA1 and hA2AARs, radioligand binding Ki) was “over 10 fold”. The “binding to HEK cells expressing the A2AAR compared with binding to the A3AR (expressed as 100%)” value in data set [5] is listed as 0.5%. The Kb in data set [6] came to 4.8 nM. For the same compound, the t1/2 for association in [7] (10 nM MRS5449, CHO cells expressing hA3AR) is reported as 53 min. Also, in data set [7] (10 nM MRS5449, dissociation initiated after 90 min with 10 μM MRS1220), the “Kd determined through association and dissociation kinetic experiments” value came to 6.65 ± 0.55 nM. In addition, the “Nonspecific binding, % of total binding” value in data set [7] (10 nM MRS5449, with 10 μM MRS1220 or 10 μM Cl-IB-MECA or in control CHO cells) is given as “less than 1%”. The Kd in data set [7] (FCM saturation binding, […] to 250 nM, nonspecific with 10 μM MRS1220, read-out: Kd (equilibrium binding constant, saturation binding)) amounted to 5.15 ± 1.11 nM. For the same compound, in data set [7] (preliminary FCM experiments, hA3AR CHO cells, 1 h at 37° C., concentration about two times Ki), the “fluorescence emission (MFI) of cell-bound ligand” value is reported as “sufficiently high MFI”. For the same compound, the “binding to CHO cells expressing the A1AR compared with binding to the A3AR (expressed as 100%)” value in data set [8] stood at 0.3%.
Turning to `Cn1cc2c(nc(NC(=O)Nc3ccc(CC(=O)NCCCCN)cc3)n3nc(-c4ccco4)nc23)n1.O=C(O)C(F)(F)F` [Compound 18, N-(4-Aminobutyl)-2-(4-(3-(2-(furan-2-yl)-8-methyl-8H-pyrazolo[4,3-e][1,2,4]triazolo[1,5-c]pyrimidin-5-yl)ureido)phenyl)acetamide trifluoroacetate salt], the melting point was 167 to 173 °C. Besides, in data set [2] (Table 3), the Ki was found to be 6 ± 1.29 nM. Besides, the Ki in data set [3] (Table 3) was 172 ± 33 nM. In addition, the A1 % inhibition in [4] (Table 3) was 4% ± 1%.
As for `Nc1nc(NCCc2ccc(O)cc2)nc2nc(-c3ccco3)nn12` [ZM241385, 4-(2-[7-amino-2-(2-furyl)[1,2,4]triazolo[2,3-a][1,3,5]triazin-5-ylamino]ethyl)phenol], in data set [1], the inhibition constant (Ki) amounted to 300 ± 27 nM.

A word on the Ki: it is a measure of affinity in units of concentration, obtained from inhibition or displacement. For orientation: melting point means the temperature, or range, at which the solid turns liquid. What is called Kb is the equilibrium dissociation constant of an antagonist, usually derived from a functional assay. Low values mean higher antagonist affinity, high ones lower antagonist affinity.
